Legend:
[1] = test system: influenza virus A/Taiwan/1/86 (H1N1); experiment: organism not typed; assay type: cell-based; details: MDCK cells infected with influenza A/Taiwan/1/86 (H1N1), three days post-virus exposure, CPE by ATP levels
in vitro = details: dog
MDCK cells = details: dog, 3 days

Compound | IC50 ([1]; MDCK, 72 h) [nM] | CC50 at 3 days (in vitro) [nM] | IC50 [1] [nM] | CC50 (MDCK cells) [nM]
Cn1cnc(C(=O)N[C@H]2CCC[C@@H](Nc3nc(-c4c[nH]c5ncncc45)ncc3F)C2)c1 [Compound 14] | 47 | > 25000 | – | –
Cc1ncnc2[nH]cc(-c3ncc(F)c(N[C@@H]4CCC[C@H](NC(=O)N5CCCC5)C4)n3)c12 [Compound 87] | 470 | > 25000 | – | –
Cc1noc(C)c1C(=O)N[C@H]1CCC[C@@H](Nc2nc(-c3c[nH]c4ncncc34)ncc2F)C1 (racemic) [Compound 40] | 190 | > 25000 | – | –
Cn1cnc(C(=O)N[C@H]2CCC[C@@H](Nc3nc(-c4c[nH]c5ncncc45)c(F)cc3F)C2)c1 [Compound 16] | 36 | > 25000 | – | –
Cc1nc(C(=O)N[C@H]2CCC[C@@H](Nc3nc(-c4c[nH]c5ncncc45)ncc3F)C2)c(C)o1 (racemic) [Compound 36] | 40 | > 25000 | – | –
CCC(=O)N[C@H]1CCC[C@@H](Nc2nc(-c3c[nH]c4ncncc34)ncc2F)C1 (racemic) [Compound 62] | 700 | > 25000 | – | –
CC(C)NC(=O)N[C@H]1CCC[C@@H](Nc2nc(-c3c[nH]c4ncncc34)ncc2F)C1 (racemic) [Compound 41] | 319 | > 25000 | – | –
CC(C)(C)C(CC(=O)O)Nc1nc(-c2c[nH]c3ncncc23)c(C(F)(F)F)cc1F (stereo not drawn) [Compound 18] | 44 | 2480 | – | –
O=C(N[C@H]1CCC[C@@H](Nc2nc(-c3c[nH]c4ncncc34)ncc2F)C1)C1CC1 (racemic) [Compound 39] | 114 | > 25000 | – | –
O=C(N[C@H]1CCC[C@@H](Nc2nc(-c3c[nH]c4ncncc34)ncc2F)C1)c1ccno1 (racemic) [Compound 47] | 11 | > 25000 | – | –
O=C(N[C@H]1CCC[C@@H](Nc2nc(-c3c[nH]c4ncncc34)ncc2F)C1)N1CCCC1 (racemic) [Compound 7] | 5 | > 25000 | – | –
O=C(N[C@H]1CCC[C@@H](Nc2nc(-c3c[nH]c4ncncc34)cnc2F)C1)N1CCCC1 [Compound 46] | 5 | > 25000 | – | –
CC(C)Nc1nc(-c2c[nH]c3ncncc23)ncc1F [Compound 61] | 630 | > 25000 | – | –
Cn1cnc(C(=O)N[C@H]2CCC[C@@H](Nc3nc(-c4c[nH]c5ncncc45)ncc3F)C2)c1 [Compound 48] | – | – | 35 | > 25000
O=C(O)[C@H]1C2CCC(CC2)[C@@H]1Nc1nc(-c2c[nH]c3ncncc23)ncc1F (mixture of isomers) [Compound 54] | 460 | > 25000 | – | –
O=C(N[C@H]1CCC[C@@H](Nc2nc(-c3c[nH]c4ncncc34)ncc2F)C1)c1ccn2nccc2n1 (racemic) [Compound 29] | 10 | > 25000 | – | –
O[C@H]1CCCC[C@@H]1Nc1nc(-c2c[nH]c3ncncc23)ncc1F (racemic) [Compound 58] | 630 | > 100000 | – | –
O=C(Nc1ccccc1)N[C@H]1CCC[C@@H](Nc2nc(-c3c[nH]c4ncncc34)ncc2F)C1 (racemic) [Compound 31] | 21 | > 25000 | – | –
CC(C)(C)C(=O)N[C@H]1CCC[C@@H](Nc2nc(-c3c[nH]c4ncncc34)ncc2F)C1 (racemic) [Compound 64] | 760 | > 25000 | – | –
CC[C@@]1(C(=O)O)CCCC[C@H]1Nc1nc(-c2c[nH]c3ncncc23)ncc1F [Compound 72] | 860 | 10300 | – | –
Cc1cc(C(=O)N[C@@H]2CCC[C@@H](Nc3nc(-c4c[nH]c5ncncc45)ncc3F)C2)no1 (racemic) [Compound 34] | 40 | > 25000 | – | –
CC(C)(C)[C@@H](CO)Nc1nc(-c2c[nH]c3ncncc23)ncc1F (racemic) [Compound 55] | 550 | > 25000 | – | –
Cn1cccc1C(=O)N[C@H]1CCC[C@@H](Nc2nc(-c3c[nH]c4ncncc34)ncc2F)C1 (racemic) [Compound 45] | 4 | > 25000 | – | –
CC1(C(CC(=O)O)Nc2nc(-c3c[nH]c4ncncc34)ncc2F)CCCC1 (stereo not drawn) [Compound 53] | 650 | > 25000 | – | –
O=C(N[C@H]1CCC[C@@H](Nc2nc(C3CNc4ncncc43)ncc2F)C1)OCc1ccccc1 (stereo partly drawn) [Compound 28] | 351 | > 25000 | – | –
COCC(=O)N[C@H]1CCC[C@@H](Nc2nc(-c3c[nH]c4ncncc34)ncc2F)C1 (racemic) [Compound 66] | 820 | > 25000 | – | –

Compound | IC50 ([1]; MDCK, 72 h) [nM] | CC50 at 3 days (in vitro) [nM] | IC50 [1] [nM] | CC50 (MDCK cells) [nM]
O=C(N[C@H]1CCC[C@@H](Nc2nc(-c3c[nH]c4ncncc34)ncc2F)C1)C1CCC1 (racemic) [Compound 37] | 205 | > 25000 | – | –
COC(=O)[C@H]1C2CCC(CC2)[C@@H]1Nc1nc(-c2c[nH]c3ncncc23)ncc1F [Compound 24] | 325 | > 25000 | – | –
O=C(O)c1ccccc1C(=O)N[C@H]1CCC[C@@H](Nc2nc(-c3c[nH]c4ncncc34)ncc2F)C1 (racemic) [Compound 63] | 720 | > 25000 | – | –
Fc1cnc(-c2c[nH]c3ncncc23)nc1NC1[C@H]2CC3C[C@H](C2)C[C@H]1C3 (stereo partly drawn) [Compound 57] | 660 | 5200 | – | –
CC(C)(C)C(CC(=O)O)Nc1nc(-c2c[nH]c3ncncc23)c(C#N)cc1F (stereo not drawn) [Compound 21] | 106 | 13400 | – | –
Cc1cc(C(=O)N[C@H]2CCC[C@@H](Nc3nc(-c4c[nH]c5ncncc45)ncc3F)C2)nn1C (racemic) [Compound 30] | 21 | > 25000 | – | –
O=C(N[C@H]1CCC[C@@H](Nc2nc(-c3c[nH]c4ncncc34)c(F)cc2F)C1)N1CCCC1 [Compound 23] | 33 | > 25000 | – | –
O=C(N[C@H]1CCC[C@@H](Nc2nc(-c3c[nH]c4ncncc34)ncc2F)C1)C1CCCCO1 (mixture of isomers) [Compound 38] | 380 | > 25000 | – | –
O=C(O)[C@H]1C2CCC(CC2)[C@@H]1Nc1nc(-c2c[nH]c3ncncc23)c(C(F)(F)F)cc1F [Compound 44] | 3 | 9400 | – | –
COC(=O)N[C@H]1CCC[C@@H](Nc2nc(-c3c[nH]c4ncncc34)ncc2F)C1 (racemic) [Compound 56] | 600 | > 25000 | – | –
Cn1cnc(C(=O)N[C@@H]2CCC[C@@H](Nc3nc(-c4c[nH]c5ncncc45)c(C#N)cc3F)C2)c1 [Compound 12] | 30 | > 25000 | – | –
Cc1ncc2c(-c3ncc(F)c(N[C@@H]4CCC[C@H](NC(=O)N5CCCC5)C4)n3)c[nH]c2n1 [Compound 92] | 180 | > 25000 | – | –
N#Cc1cc(F)c(N[C@@H]2CCC[C@H](NC(=O)N3CCCC3)C2)nc1-c1c[nH]c2ncncc12 (stereo in doubt) [Compound 9, (+/−)-N-((cis)-3-((5-cyano-3-fluoro-6-(7H-pyrrolo[2,3-d]pyrimidin-5-yl)pyridin-2-yl)amino)cyclohexyl)pyrrolidine-1-carboxamide] | 9 | 8740 | – | –
Cc1[nH]c2ncncc2c1-c1ncc(F)c(N[C@@H]2CCC[C@H](NC(=O)N3CCCC3)C2)n1 [Compound 83] | 710 | > 25000 | – | –
Nc1ncnc2[nH]cc(-c3ncc(F)c(N[C@@H]4CCC[C@H](C(=O)N5CCCC5)C4)n3)c12 [Compound 79] | 150 | > 25000 | – | –
COC(=O)CC(Nc1nc(-c2c[nH]c3ncncc23)ncc1F)C(C)(C)C (stereo not drawn) [Compound 69] | 830 | > 25000 | – | –
Cc1cc(C(=O)N[C@H]2CCC[C@@H](Nc3nc(-c4c[nH]c5ncncc45)ncc3F)C2)on1 (racemic) [Compound 32] | 35 | > 25000 | – | –
O=C(N[C@H]1CCC[C@@H](Nc2nc(-c3c[nH]c4ncncc34)ncc2F)C1)c1ccncc1 (racemic) [Compound 33] | 42 | > 100000 | – | –
N#Cc1cc(F)c(N[C@H]2C3CCC(CC3)[C@@H]2C(=O)O)nc1-c1c[nH]c2ncncc12 [Compound 101] | 36 | 10500 | – | –
Fc1cnc(-c2c[nH]c3ncncc23)nc1NC1CCCCC1 [Compound 65] | 810 | 11600 | – | –
O=C(N[C@H]1CCC[C@@H](Nc2nc(-c3c[nH]c4ncncc34)ncc2F)C1)c1ccccn1 (racemic) [Compound 35] | 2 | > 25000 | – | –
N#Cc1cc(F)c(N[C@@H]2CCC[C@H](NC(=O)c3ccccn3)C2)nc1-c1c[nH]c2ncncc12 [Compound 98] | 2 | > 25000 | – | –
N#Cc1cc(F)c(N[C@H]2CCC[C@@H](NC(=O)N3CCCC3)C2)nc1-c1c[nH]c2ncncc12 (stereo in doubt) [Compound 93] | 6 | > 25000 | – | –
CC(C)C(=O)N[C@H]1CCC[C@@H](Nc2nc(-c3c[nH]c4ncncc34)ncc2F)C1 (racemic) [Compound 73] | 930 | > 25000 | – | –
O=C(N[C@H]1CCC[C@@H](Nc2nc(-c3c[nH]c4ncncc34)ncc2F)C1)c1cccnc1 (racemic) [Compound 49] | 46 | > 25000 | – | –
